Measurements: patent US20230303540A1 (Merck Sharp & Dohme LLC, priority 2020, published 2023)

Biological target: GST-tagged truncated human mutant G2019S LRRK2 (Homo sapiens, UniProt Q5S007, G2019S)
Assay: LRRK2 G2019S Km ATP LanthaScreen assay
Assay type: biochemical
Details: 134 μM ATP (Km ATP), LRRKtide substrate, mean IC50 values; read-out: LRRK2 pIC50 (converted)
Outline: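 Compound preincubated 15 min at room temperature with enzyme in pH 8.5 Tris buffer (10 mM MgCl2). Then a 90 min reaction at ambient temperature with 134 μM (Km) ATP and fluorescein-LRRKtide. EDTA stop, Tb anti-phospho antibody TR-FRET; […]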

In order of falling IC50:
1. CCn1ncc(Nc2ncc3ccc(N4CCCC4C)cc3n2)c1C (single isomer, unassigned) [Ex-1.9, (S) or (R) N-(1-ethyl-5-methyl-1H-pyrazol-4-yl)-7-(2-methylpyrrolidin-1-yl)quinazolin-2-amine]  36.1 nM
2. O[C@@H]1COC[C@@H]1N1CCN(c2cc3nc(Nc4cnn(C5CC5)c4Cl)ncc3cc2Cl)CC1 (single isomer, unassigned) [Ex-3.51, (3R,4R) or (3S,4S) 4-(4-{6-chloro-2-[(5-chloro-1-cyclopropyl-1H-pyrazol-4-yl)amino]quinazolin-7-yl}piperazin-1-yl)oxolan-3-ol]  16.3 nM
3. Cc1c(Nc2ncc3cc(Cl)c(N4CCN(C5COCC5O)CC4)cc3n2)cnn1CC(F)F (single isomer, unassigned) [Ex-6.26, (3S,4S) or (3R,4R) 4-[4-(6-chloro-2-{[1-(2,2-difluoroethyl)-5-methyl-1H-pyrazol-4-yl]amino}quinazolin-7-yl)piperazin-1-yl]oxolan-3-ol]  11.5 nM
4. C[C@]1(O)[C@@H]2CC[C@H]1CN(c1cc3nc(Nc4cnn(C5CC5)c4Cl)ncc3cc1Cl)C2 [Ex-1.40, (8-syn)-3-{6-chloro-2-[(5-chloro-1-cyclopropyl-1H-pyrazol-4-yl)amino]quinazolin-7-yl}-8-methyl-3-azabicyclo[3.2.1]octan-8-ol]  11.2 nM
5. CCn1ncc(Nc2ncc3ccc(N4C(=O)CCC4C)cc3n2)c1C (single isomer, unassigned) [Ex-7.18, (R) or (S) 1-{2-[(1-ethyl-5-methyl-1H-pyrazol-4-yl)amino]quinazolin-7-yl}-5-methylpyrrolidin-2-one]  8.73 nM
6. CC(C)c1cc(Nc2ncc3ccc(N4C(=O)OC[C@@H]4C)cc3n2)ns1 [Ex-8.9, (4S)-4-methyl-3-(2-{[5-(propan-2-yl)-1,2-thiazol-3-yl]amino}quinazolin-7-yl)-1,3-oxazolidin-2-one]  8.03 nM
7. Cc1nsc(Nc2ncc3ccc(N4C(=O)C5CCC4C5)cc3n2)c1C (centres unmarked) [Ex-8.14, 2-{2-[(3,4-dimethyl-1,2-thiazol-5-yl)amino]quinazolin-7-yl}-2-azabicyclo[2.2.1]heptan-3-one]  7.79 nM
8. C[C@H]1CN(C)CCN1c1cc2nc(Nc3cnn(C4(C)CC4)c3Cl)ncc2cc1Cl [Ex-4.36, 6-chloro-N-[5-chloro-1-(1-methylcyclopropyl)-1H-pyrazol-4-yl]-7-[(2S)-2,4-dimethylpiperazin-1-yl]quinazolin-2-amine]  6.06 nM
9. CC1(O)CCN(c2cc3nc(Nc4cnn(C5CC5)c4Cl)ncc3cc2Cl)CC1 [Ex-3.26, 1-{6-chloro-2-[(5-chloro-1-cyclopropyl-1H-pyrazol-4-yl)amino]quinazolin-7-yl}-4-methylpiperidin-4-ol]  5.63 nM
10. CC1(N2CCN(c3cc4nc(Nc5cnn(C6(C)CC6)c5Cl)ncc4cc3Cl)CC2)CCOC1 (centres unmarked) [Ex-12.4]  3.04 nM
11. CC1(N2CCN(c3cc4nc(Nc5cnn(C6CC6)c5)ncc4cc3Cl)CC2)COC1 [Ex-4.18, 6-chloro-N-(1-cyclopropyl-1H-pyrazol-4-yl)-7-[4-(3-methyloxetan-3-yl)piperazin-1-yl]quinazolin-2-amine]  2.39 nM
12. Cn1ncc(Nc2ncc3cc(Cl)c(N4CCN(C5(C)COCC5O)CC4)cc3n2)c1C(F)F (single isomer, unassigned) [Ex-6.49, (3S,4S) or (3R,4R) 4-(4-(6-chloro-2-((5-(difluoromethyl)-1-methyl-1H-pyrazol-4-yl)amino)quinazolin-7-yl)piperazin-1-yl)-4-methyltetrahydrofuran-3-ol]  2.07 nM
13. OC1COCC1N1CCN(c2cc3nc(Nc4cnn(C5CC5(F)F)c4Cl)ncc3cc2Cl)CC1 (single isomer, unassigned) [Ex-6.30, (3S,4S) or (3R,4R) 4-[4-(6-chloro-2-{[5-chloro-1-(2,2-(R) or (S)difluorocyclopropyl)-1H-pyrazol-4-yl]amino}quinazolin-7-yl)piperazin-1-yl]oxolan-3-ol]  0.9 nM
14. Cc1c(Nc2ncc3cc(Cl)c(N4CCN(C5COCC5O)CC4)cc3n2)cnn1C1CC1(F)F (single isomer, unassigned) [Ex-6.45, (3S,4S) or (3R,4R) 4-[4-(6-chloro-2-{[1-(2,2-(R) or (S)difluorocyclopropyl)-5-methyl-1H-pyrazol-4-yl]amino}quinazolin-7-yl)piperazin-1-yl]oxolan-3-ol]  0.843 nM
15. Cc1cc(Nc2ncc3cc(Cl)c(N4CCN(C5(C)COC5)CC4)cc3n2)sn1 [Ex-4.62, 6-chloro-7-[4-(3-methyloxetan-3-yl)piperazin-1-yl]-N-(3-methyl-1,2-thiazol-5-yl)quinazolin-2-amine]  0.793 nM
16. CC1(N2CCN(c3cc4nc(Nc5cnn(C(C)(C)C)c5)ncc4cc3Cl)CC2)COC1 [Ex-4.46, N-(1-tert-butyl-1H-pyrazol-4-yl)-6-chloro-7-[4-(3-methyloxetan-3-yl)piperazin-1-yl]quinazolin-2-amine]  0.792 nM
17. Cc1c(Nc2ncc3cc(Cl)c(N4CCN(C5COCC5O)CC4)cc3n2)cnn1C(F)F (single isomer, unassigned) [Ex-13.6, (3S,4S) or (3R,4R)-4-(4-(6-chloro-2-((1-(difluoromethyl)-5-methyl-1H-pyrazol-4-yl)amino)quinazolin-7-yl)piperazin-1-yl)tetrahydrofuran-3-ol]  0.668 nM
18. Cc1cc2cnc(Nc3cnn(C4CC4(F)F)c3C)nc2cc1N1CCN(C2COCC2O)CC1 (single isomer, unassigned) [Ex-5.2, (3S,4S) or (3R,4R) 4-(4-(2-((1-(2,2-(R) or (S)difluorocyclopropyl)-5-methyl-1H-pyrazol-4-yl)amino)-6-methylquinazolin-7-yl)piperazin-1-yl)tetrahydrofuran-3-ol]  0.45 nM
19. Cn1ncc(Nc2ncc3cc(Cl)c(N4CCN(C5(C)COCC5O)CC4)cc3n2)c1Cl (single isomer, unassigned) [Ex-6.28, (3S,4S) or (3R,4R) 4-(4-{6-chloro-2-[(5-chloro-1-methyl-1H-pyrazol-4-yl)amino]quinazolin-7-yl}piperazin-1-yl)-4-methyloxolan-3-ol]  0.381 nM
20. OC1COCC1N1CCN(c2cc3nc(Nc4cnn(C5CC5(F)F)c4Cl)ncc3cc2Cl)CC1 (single isomer, unassigned) [Ex-6.27, (3S,4S) or (3R,4R) 4-[4-(6-chloro-2-{[5-chloro-1-(2,2-(R) or (S)difluorocyclopropyl)-1H-pyrazol-4-yl]amino}quinazolin-7-yl)piperazin-1-yl]oxolan-3-ol]  0.27 nM
21. COCC12CC(n3cc(Nc4ncc5cc(Cl)c(N6CCC7(CC6)COC(CO)C7)cc5n4)cn3)(C1)C2 (centres unmarked) [Ex-3.15, {8-[6-chloro-2-({1-[3-(methoxymethyl)bicyclo[1.1.1]pentan-1-yl]-1H-pyrazol-4-yl}amino)quinazolin-7-yl]-2-oxa-8-azaspiro [4.5]decan-3-yl}methanol]  0.227 nM
22. CC(C)(O)Cn1cc(Nc2ncc3cc(Cl)c(N4CCC(C)(O)CC4)cc3n2)cn1 [Ex-3.12, 1-(6-chloro-2-{[1-(2-hydroxy-2-methylpropyl)-1H-pyrazol-4-yl]amino}quinazolin-7-yl)-4-methyl-piperidin-4-ol]  0.221 nM
23. Cc1c(Nc2ncc3cc(Cl)c(N4CCC(O)CC4)cc3n2)cnn1C1CC1 [Ex-3.14, 1-{6-chloro-2-[(1-cyclopropyl-5-methyl-1H-pyrazol-4-yl)amino]quinazolin-7-yl}piperidin-4-ol]  0.106 nM
